A short description of data set [1]: Acute toxicity (LD50), intravenous, male mice. Conditions: mouse, in vivo, i.v. The method, then: Acute toxicity (LD50) for intravenous administration in male mice was determined by the method of […] and Wilcoxon (referred to Journal of Pharmacology and Experimental Therapeutics, 96, 99-113, 1949).
Data set [2] deals with myocardial contraction in anesthetized dogs. The data set is described as follows: Effects on myocardial contraction in anesthetized dogs. Format: in vivo. The conditions noted are these: anesthetized dog. The method, then: 3. Effects on myocardial contraction in anesthetized dogs
Male and female mongrel dogs with body weight of 8-15 kg were used. A dog was anesthetized by intraveneous injection of 30 mg/kg of sodium pentobarbital and practiced artificial respiration. The dog was thoractomized between fourth and fifth costa which was cut off. The pericardium was incised to expose heart. Blood flow through the aorta, which was measured with an electromagnetic blood flowmeter whose probe was attached to the ascending aorta, was used as an approximate index of cardiac output (CO). Left ventricular pressure (LVP) was measured with a Miller Catheter-tip pressure transducer and the first derivative of the LVP (dP/dt) was measured with a differentiater. Contraction of right ventricular muscle (Cont) was determined with a strain-gauge attached to the wall. Systemic blood pressure was measured from the left femoral artery. Heart rate was measured with electrocardiogram (lead II) and a cardiotachometer. The compound dissolved in a solvent was administered intravenously from a left femoral vein.

Data set [3] relates to papillary muscle of dog. The data set is described as follows: Effect on contraction of an isolated and cross-circulated papillary muscle preparation of the dog. Conditions: Canis lupus familiaris; dosage 30 μg i.a.; read-out: Contraction of papillary muscle of dog, increase. Here is the method: 1. Effect on contraction of an isolated and cross-circulated papillary muscle preparation of the dog
An isolated and cross-circulated papillary muscle preparation of the dog was prepared by Endo and Hashimoto's method (referred to American Journal of Physiology, 218, 1459-1463, 1970). The effect of the compound was measured by closely intraarterially injecting the compound dissolved in a solvent to the papillary muscle for the purpose of recording its effect on contraction of papillary muscle.

Data set [4] relates to left atrium of the guinea pig. The data set is described as follows: Effect on contraction of an isolated left atrium of the guinea pig. The conditions noted are these: Cavia porcellus; dosage 10^-5 g/ml; read-out: Contraction of left atrium of guinea pig, increase. The method, then: 2. Effect on contraction of an isolated left atrium of the guinea pig
A left atrium was isolated from a male guinea pig with 200-300 g of body weight soon after striking on the back of its head. The mitral orifice was fixed to the bottom of an organ bath filled with 30 ml of Krebs-Henseleit solution maintained at 35° C. A gas mixture comprising 95% of O2 and 5% of CO2 was passed through the Krebs-Henseleit solution in the organ bath. Isometric tension was measured by connecting a left auricle of heart and a transducer by a yarn. A resting tension of 0.5 g was given to the atrium, which was then electrically driven with square pulses with duration of 1 msec and voltage of 1.5 times as much as threshold in the rate of 2 Hz via dipolar platinum electrodes.
After stabilizing the atrium for 30 minutes from its preparation, the compound dissolved in a solvent was added to the organ bath to measure its effect.

These results are taken from patent publication US4661484A, “Pyridazinone derivatives and salts thereof as cardiac stimulants” (Mitsubishi Chemical Industries Limited, priority 1984, dated 1987).

Broadly, the LD50 is the dose expected to kill half of the subjects tested. `O=c1ccc(-c2ccc(Nc3ccncc3)cc2)n[nH]1` [Example I, 6-[4-(4'-pyridyl)aminophenyl]-3(2H)-pyridazinone]: in data set [1], the LD50 was found to be 103 mg/kg. Besides, in data set [2] (30 μg/kg i.v.), the “CO increase (cardiac output)” value came out at 13%, the “Cont increase (contraction of right ventricular muscle)” value was determined as 31% and the dP/dt max increase is reported as 64%. In data set [2] (100 μg/kg i.v.), the “CO increase (cardiac output)” value was found to be 11%, the “Cont increase (contraction of right ventricular muscle)” value is 39% and the dP/dt max increase was determined as 108%. Besides, the activation at 0.03 mg in data set [3] stood at 12.4%. Further, the activation at 10 µg/mL in data set [4] stood at 163%.
